In ChEMBL document CHEMBL6103672, “Discovery of HMPL-306 (Ranosidenib), a New Potent and Selective Dual Inhibitor of Mutant IDH1 and 2 in Clinical Development for Cancer Treatment” (ACS Med Chem Lett, 2025):

Key:
[1] = target: Isocitrate dehydrogenase [NADP], mitochondrial (Homo sapiens, UniProt P48735, R140Q); assay: Inhibition of IDH2 R140Q mutant (unknown origin) using alpha-ketoglutarate as substrate preincubated with compound for 16 hrs followed by substrate addition and measured after 1 hr in presence of NADPH by fluorescence based analysis
[2] = Inhibition of IDH2 R140Q mutant in human U-87 MG cells incubated for 72 hrs by measuring 2-HG production by fluorescence based analysis; type: functional, cell-based, U-87MG ATCC
[3] = Inhibition of IDH1 R132H mutant in human U-87 MG cells incubated for 72 hrs by measuring 2-HG production by fluorescence based analysis; type: functional, cell-based, U-87MG ATCC
[4] = Apparent permeability across apical to basolateral side in human Caco-2 cells at 10 uM incubated for 1 hrs by LC-MS/MS analysis
[5] = Apparent permeability across basolateral to apical side in human Caco-2 cells at 10 uM incubated for 1 hrs by LC-MS/MS analysis
[6] = Metabolic stability in male SD rat liver microsomes assessed as parent compound remaining at 1 uM measured after 30 mins in presence of NADPH by LC-MS analysis; type: ADME, Microsome; conditions: Sprague-Dawley, read-out: Stability
[7] = Metabolic stability in male ICR mouse liver microsomes assessed as parent compound remaining at 1 uM measured after 30 mins in presence of NADPH by LC-MS analysis; type: ADME, Microsome; conditions: read-out: Stability

Chain of Isocitrate dehydrogenase [NADP], mitochondrial (P48735 40-452 R140Q limits assumed): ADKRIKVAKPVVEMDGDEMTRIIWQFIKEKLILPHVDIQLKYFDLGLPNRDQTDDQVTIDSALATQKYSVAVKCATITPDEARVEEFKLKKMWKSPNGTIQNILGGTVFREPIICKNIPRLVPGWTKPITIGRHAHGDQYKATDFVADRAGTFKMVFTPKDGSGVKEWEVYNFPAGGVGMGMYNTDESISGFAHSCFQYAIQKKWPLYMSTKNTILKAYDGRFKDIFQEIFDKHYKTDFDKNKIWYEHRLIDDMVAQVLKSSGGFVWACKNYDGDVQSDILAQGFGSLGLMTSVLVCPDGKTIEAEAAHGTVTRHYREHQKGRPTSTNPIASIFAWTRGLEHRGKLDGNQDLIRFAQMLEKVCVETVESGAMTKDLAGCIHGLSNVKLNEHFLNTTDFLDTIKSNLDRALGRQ

Row | SMILES | IC50 [1] | IC50 ([2]; Homo sapiens, U-87 MG, 72 h) | further results
1 | COC1C=C(c2nc(N[C@H](C)C(F)(F)F)nc(N[C@H](C)C(F)(F)F)n2)CCC1 (stereo partly specified) | 1030 nM | 2390 nM | 
2 | CC(C)Nc1nc(N[C@H](C)C(F)(F)F)nc(C2=C[C@@H](O)CCC2)n1 | 16 nM | 67 nM | IC50 ([3]; Homo sapiens, U-87 MG, 72 h): 372 nM; Papp A→B at 1 h, 10 µM [4]: 55.4 ×10⁻⁶ cm/s; Papp B→A at 1 h, 10 µM [5]: 34.1 ×10⁻⁶ cm/s; remaining at 0.5 h, 1 µM [6]: 65%; remaining at 0.5 h, 1 µM [7]: 48.1%
3 | C=C(C)c1nc(NC(C)C)nc(N[C@H](C)C(F)(F)F)n1 | 710 nM | > 10000 nM | 
4 | CNC1C=C(c2nc(N[C@H](C)C(F)(F)F)nc(N[C@H](C)C(F)(F)F)n2)CCC1 (stereo partly specified) | > 3000 nM |  | 
5 | CC(C)Nc1nc(N[C@H](C)C(F)(F)F)nc(C2=CCCC2)n1 | 83 nM | 1420 nM | 
6 | CC(C)Nc1nc(N[C@H](C)C(F)(F)F)nc(C2=CCCCC2)n1 | 21 nM | 413 nM | Papp A→B at 1 h, 10 µM [4]: 0.9 ×10⁻⁶ cm/s; Papp B→A at 1 h, 10 µM [5]: 3.3 ×10⁻⁶ cm/s; remaining at 0.5 h, 1 µM [6]: 13.6%; remaining at 0.5 h, 1 µM [7]: 12.5%
7 | CC(C)Nc1nc(N[C@H](C)C(F)(F)F)nc(C2=CC(F)(F)CCC2)n1 | 23 nM | 504 nM | Papp A→B at 1 h, 10 µM [4]: 2.2 ×10⁻⁶ cm/s; Papp B→A at 1 h, 10 µM [5]: 4 ×10⁻⁶ cm/s
8 | CC(C)Nc1nc(N[C@H](C)C(F)(F)F)nc(C2=C[C@H](O)CCC2)n1 | 794 nM | 999 nM | 
9 | CC(C)Nc1nc(N[C@H](C)C(F)(F)F)nc(C2(c3ccccc3)CC2)n1 | 253 nM |  | 
10 | CC(C)Nc1nc(N[C@H](C)C(F)(F)F)nc(C2=CCOCC2)n1 | 2340 nM |  | 
11 | CC(C)Nc1nc(N[C@H](C)C(F)(F)F)nc(N2CCCCC2)n1 | > 3000 nM |  | 
12 | CC(C)Nc1nc(N[C@H](C)C(F)(F)F)nc(C2=CCN(C)CC2)n1 | > 3000 nM |  | 
13 | C[C@H](Nc1nc(N[C@H](C)C(F)(F)F)nc(C2=C(F)C(O)C(F)(F)CC2)n1)C(F)(F)F (stereo partly specified) | 166 nM | 156 nM | IC50 ([3]; Homo sapiens, U-87 MG, 72 h): 1030 nM
14 | C[C@@H](Nc1nc(N[C@H](C)C(F)(F)F)nc(C2=C(F)[C@H](O)CCC2)n1)C(F)(F)F |  | 1020 nM | IC50 ([3]; Homo sapiens, U-87 MG, 72 h): 3260 nM; Papp A→B at 1 h, 10 µM [4]: 60 ×10⁻⁶ cm/s; Papp B→A at 1 h, 10 µM [5]: 26 ×10⁻⁶ cm/s
15 | C[C@@H](Nc1nc(NCC(C)(C)O)nc(C2=CC(O)CCC2)n1)C(F)(F)F (mixture of isomers) | 1200 nM | 2800 nM | 
16 | CC(C)Nc1nc(N[C@H](C)C(F)(F)F)nc(C2=CCCC(F)C2)n1 (mixture of isomers) | 120 nM |  | 
17 | C[C@@H](Nc1nc(NC2CCCCC2)nc(C2=CC(O)CCC2)n1)C(F)(F)F (mixture of isomers) | 43 nM | 296 nM | 
18 | C[C@@H](Nc1nc(N[C@H](C)C(F)(F)F)nc(C2=C(F)C(O)C3(CC2)CC3)n1)C(F)(F)F (mixture of isomers) | 222 nM | 707 nM | IC50 ([3]; Homo sapiens, U-87 MG, 72 h): 3230 nM
19 | C[C@@H](Nc1nc(N[C@H](C)C(F)(F)F)nc(C2=C(F)C(O)C(F)(F)CC2)n1)C(F)(F)F (mixture of isomers) | 28 nM |  | IC50 ([2]; u-87mg atcc): 94 nM; IC50 ([3]; u-87mg atcc): 210 nM; Papp A→B at 1 h, 10 µM [4]: 50.4 ×10⁻⁶ cm/s; Papp B→A at 1 h, 10 µM [5]: 25.1 ×10⁻⁶ cm/s; remaining at 0.5 h, 1 µM [6]: 102%; remaining at 0.5 h, 1 µM [7]: 95.2%
20 | CC(C)Nc1nc(N[C@H](C)C(F)(F)F)nc(C2=CCCC(O)C2)n1 (mixture of isomers) | 1780 nM |  | 

Row | SMILES | IC50 [1] | IC50 ([2]; Homo sapiens, U-87 MG, 72 h) | further results
21 | C[C@@H](Nc1nc(NC2CC2)nc(C2=CC(O)CCC2)n1)C(F)(F)F (mixture of isomers) | 257 nM | 171 nM | 
22 | C[C@@H](Nc1nc(NC(C)(C)C)nc(C2=CC(O)CCC2)n1)C(F)(F)F (mixture of isomers) | 111 nM | 319 nM | 
23 | CC(C)Nc1nc(N[C@H](C)C(F)(F)F)nc(C2=CC(O)CCC2)n1 (mixture of isomers) | 41 nM | 137 nM | IC50 ([3]; Homo sapiens, U-87 MG, 72 h): 658 nM; Papp A→B at 1 h, 10 µM [4]: 53.3 ×10⁻⁶ cm/s; Papp B→A at 1 h, 10 µM [5]: 34.6 ×10⁻⁶ cm/s; remaining at 0.5 h, 1 µM [6]: 74.1%; remaining at 0.5 h, 1 µM [7]: 44.1%
24 | C[C@@H](Nc1nc(N[C@H](C)C(F)(F)F)nc(C2=CC(O)CCC2)n1)C(F)(F)F (mixture of isomers) | 35 nM | 86 nM | IC50 ([3]; Homo sapiens, U-87 MG, 72 h): 434 nM; Papp A→B at 1 h, 10 µM [4]: 44.9 ×10⁻⁶ cm/s; Papp B→A at 1 h, 10 µM [5]: 28.6 ×10⁻⁶ cm/s; remaining at 0.5 h, 1 µM [6]: 79.8%; remaining at 0.5 h, 1 µM [7]: 58.2%
25 | CC(C)Nc1nc(N[C@H](C)C(F)(F)F)nc(C2=CC(O)CC2)n1 (mixture of isomers) | 85 nM | 1670 nM | 
26 | C[C@@H](Nc1nc(N[C@H](C)C(F)(F)F)nc(C2=C(F)C(O)CCC2)n1)C(F)(F)F (mixture of isomers) | 54 nM | 137 nM | IC50 ([3]; Homo sapiens, U-87 MG, 72 h): 365 nM; Papp A→B at 1 h, 10 µM [4]: 68.6 ×10⁻⁶ cm/s; Papp B→A at 1 h, 10 µM [5]: 15.5 ×10⁻⁶ cm/s; remaining at 0.5 h, 1 µM [6]: 99%; remaining at 0.5 h, 1 µM [7]: 83.8%
27 | CC(C)Nc1nc(N[C@H](C)C(F)(F)F)nc(C2=CC(F)CCC2)n1 (mixture of isomers) | 43 nM | 181 nM | Papp A→B at 1 h, 10 µM [4]: 5.1 ×10⁻⁶ cm/s; Papp B→A at 1 h, 10 µM [5]: 5.2 ×10⁻⁶ cm/s; remaining at 0.5 h, 1 µM [6]: 25.1%; remaining at 0.5 h, 1 µM [7]: 16.8%
28 | CC(C)Nc1nc(N[C@H](C)C(F)(F)F)nc(C2=CCC(F)CC2)n1 (mixture of isomers) | 162 nM |  | 
29 | CC(C)Nc1nc(N[C@H](C)C(F)(F)F)nc(C(C)c2ccccc2)n1 (mixture of isomers) | 337 nM |  | 
30 | CC(C)Nc1nc(N[C@H](C)C(F)(F)F)nc(C2=CCC(O)CC2)n1 (mixture of isomers) | > 3000 nM |  | 
31 | CC(C)C(=O)Nc1nc(N[C@H](C)C(F)(F)F)nc(C2=CC(O)CCC2)n1 (mixture of isomers) | 262 nM | 1540 nM | 
32 | CC(C)CNc1nc(N[C@H](C)C(F)(F)F)nc(C2=CC(O)CCC2)n1 (mixture of isomers) | 21 nM | 100 nM | IC50 ([3]; Homo sapiens, U-87 MG, 72 h): 2470 nM
33 | CCCNc1nc(N[C@H](C)C(F)(F)F)nc(C2=CC(O)CCC2)n1 (mixture of isomers) | 35 nM | 174 nM | 
34 | C[C@H](Nc1nc(N[C@@H](C)C(F)(F)F)nc(C2=C(F)C(O)C(F)(F)CC2)n1)C(F)(F)F (mixture of isomers) | 309 nM | 174 nM | IC50 ([3]; Homo sapiens, U-87 MG, 72 h): 1320 nM
35 | C[C@@H](Nc1nc(NC2CCCC2)nc(C2=CC(O)CCC2)n1)C(F)(F)F (mixture of isomers) | 33 nM | 67 nM | IC50 ([3]; Homo sapiens, U-87 MG, 72 h): 733 nM; Papp A→B at 1 h, 10 µM [4]: 30.9 ×10⁻⁶ cm/s; Papp B→A at 1 h, 10 µM [5]: 13.6 ×10⁻⁶ cm/s
36 | C[C@@H](Nc1nc(NC2CCC2)nc(C2=CC(O)CCC2)n1)C(F)(F)F (mixture of isomers) | 39 nM | 92 nM | Papp A→B at 1 h, 10 µM [4]: 41.4 ×10⁻⁶ cm/s; Papp B→A at 1 h, 10 µM [5]: 27.5 ×10⁻⁶ cm/s; remaining at 0.5 h, 1 µM [6]: 34%; remaining at 0.5 h, 1 µM [7]: 15.9%
37 | CCNc1nc(N[C@H](C)C(F)(F)F)nc(C2=CC(O)CCC2)n1 (mixture of isomers) | 68 nM | 336 nM | 
38 | COCCNc1nc(N[C@H](C)C(F)(F)F)nc(C2=CC(O)CCC2)n1 (mixture of isomers) | > 3000 nM |  | 
39 | C[C@@H](Nc1nc(N[C@H](C)C(F)(F)F)nc(C2=C(F)C(O)C(F)(F)CC2)n1)C(F)(F)F (stereo in doubt; 42) | 145 nM |  | IC50 ([2]; u-87mg atcc): 845 nM; IC50 ([3]; u-87mg atcc): 1890 nM
